We go through 13 molecules from ChEMBL document CHEMBL4334464, “From Phenylthiazoles to Phenylpyrazoles: Broadening the Antibacterial Spectrum toward Carbapenem-Resistant Bacteria” (J Med Chem, 2019).

The structures appear in SMILES notation. Values after ≈ are worked out from the molar mass of the structure shown. Active and inactive are the calls of the source. No cut-off for these calls is given here.

The test system of data set [1] is Escherichia coli. The data set can be described thus: Antimicrobial activity against Escherichia coli JW55031 harboring deltatolC mutant after 18 to 20 hrs in aerobic condition by CLSI protocol based broth microdilution assay. The data set is classed as functional.
Data set [2] has as its system Staphylococcus aureus. Nature of the data set: Antibacterial activity against methicillin-resistant Staphylococcus aureus NRS384-USA300 clinical isolates after 18 to 20 hrs in aerobic condition by CLSI protocol based broth microdilution assay. The data set is classed as functional. (Dilution methods test growth across graded concentrations, often in twofold steps.)

Data set [3] is described as follows: Efflux ratio of apparent permeability across basolateral to apical side over apical to basolateral side in human Caco2 cells after 2 hrs by LC/MS/MS analysis. As to conditions: Caco-2. The data set is classed as ADME, cell-based. A general note: Caco-2 cells form a polarised layer with tight junctions and transporters.
Data set [4] can be described thus: Apparent permeability across basolateral to apical side in human Caco2 cells after 2 hrs by LC/MS/MS analysis. Type of data set: ADME, cell-based. As to conditions: Caco-2.
In data set [5] the test system is Klebsiella pneumoniae. Nature of the data set: Antibacterial activity against carbapenem-resistant Klebsiella pneumoniae ATCC BAA-2146 clinical isolates after 18 to 20 hrs in aerobic condition by CLSI-based broth microdilution assay. Type of data set: functional.
Data set [6] deals with Escherichia coli. The data set can be described thus: Antibacterial activity against carbapenem-resistant Escherichia coli BAA-2452 clinical isolates after 18 to 20 hrs in aerobic condition by CLSI-based broth microdilution assay. The data set is classed as functional.
The subject of data set [7] is Acinetobacter baumannii. The data set can be described thus: Antibacterial activity against carbapenem-resistant Acinetobacter baumannii ATCC BAA 1605 clinical isolates after 18 to 20 hrs in aerobic condition by CLSI-based broth microdilution assay. The data set is classed as functional.
Data set [8] has as its system Klebsiella pneumoniae. Nature of the data set: Antibacterial activity against carbapenem-resistant Klebsiella pneumoniae ATCC BAA-1705 clinical isolates after 18 to 20 hrs in aerobic condition by CLSI-based broth microdilution assay. The data set is classed as functional.
For data set [9], the system named is Pseudomonas aeruginosa. The data set can be described thus: Antibacterial activity against carbapenem-resistant Pseudomonas aeruginosa ATCC 1744 clinical isolates after 18 to 20 hrs in aerobic condition by CLSI-based broth microdilution assay. The data set is classed as functional.
The test system of data set [10] is Escherichia coli. Nature of the data set: Antibacterial activity against carbapenem-resistant Escherichia coli BAA-2469 clinical isolates after 18 to 20 hrs in aerobic condition by CLSI-based broth microdilution assay. The data set is classed as functional.
In data set [11] the test system is Staphylococcus aureus. Nature of the data set: Antibacterial activity against Methicillin-sensitive Staphylococcus aureus ATCC 6538 clinical isolates after 18 to 20 hrs in aerobic condition by CLSI protocol based broth microdilution assay. Type of data set: functional.
The next data set relates to Enterococcus faecium. The data set can be described thus: Antibacterial activity against vancomycin-resistant Enterococcus faecium ATCC 700221 clinical isolates after 18 to 20 hrs in aerobic condition by CLSI-based broth microdilution assay. The data set is classed as functional.
Data set [12] deals with Staphylococcus epidermidis. The data set can be described thus: Antibacterial activity against Staphylococcus epidermidis NRS101 after 18 to 20 hrs in aerobic condition by CLSI-based broth microdilution assay. The data set is classed as functional.
Data set [13] has as its system Staphylococcus aureus. Nature of the data set: Antibacterial activity against vancomycin-resistant Staphylococcus aureus isolate 12 after 18 to 20 hrs in aerobic condition by CLSI-based broth microdilution assay. Type of data set: functional.
The subject of data set [14] is Staphylococcus aureus. Nature of the data set: Antibacterial activity against Methicillin-resistant Staphylococcus aureus NRS123-USA400 clinical isolates after 18 to 20 hrs in aerobic condition by CLSI protocol based broth microdilution assay. Type of data set: functional.
Data set [15] concerns Staphylococcus aureus. The data set can be described thus: Antibacterial activity against linezolid-resistant/Methicillin-resistant Staphylococcus aureus NRS119 clinical isolates after 18 to 20 hrs in aerobic condition by CLSI protocol based broth microdilution assay. The data set is classed as functional.
The subject of data set [16] is Staphylococcus aureus. The data set can be described thus: Antibacterial activity against vancomycin-resistant Staphylococcus aureus isolate 10 after 18 to 20 hrs in aerobic condition by CLSI-based broth microdilution assay. The data set is classed as functional.
The subject of data set [17] is Staphylococcus aureus. The data set can be described thus: Antibacterial activity against Methicillin-sensitive Staphylococcus aureus NRS107 clinical isolates after 18 to 20 hrs in aerobic condition by CLSI protocol based broth microdilution assay. Type of data set: functional.
The test system of a further data set is Listeria monocytogenes. Nature of the data set: Antibacterial activity against Listeria monocytogenes ATCC 19111 after 18 to 20 hrs in aerobic condition by CLSI-based broth microdilution assay. Type of data set: functional.
The test system of data set [18] is Escherichia coli. Nature of the data set: Antibacterial activity against Escherichia coli BW25113 clinical isolates after 18 to 20 hrs in aerobic condition by CLSI-based broth microdilution assay. The data set is classed as functional.
The test system of data set [19] is Klebsiella pneumoniae. Nature of the data set: Antibacterial activity against Klebsiella pneumoniae BAA-1706 clinical isolates after 18 to 20 hrs in aerobic condition by CLSI-based broth microdilution assay. Type of data set: functional.
In data set [20] the test system is Pseudomonas aeruginosa. The data set can be described thus: Antibacterial activity against Pseudomonas aeruginosa ATCC 15442 clinical isolates after 18 to 20 hrs in aerobic condition by CLSI-based broth microdilution assay. Type of data set: functional.
In data set [21] the test system is Acinetobacter baumannii. Nature of the data set: Antibacterial activity against Acinetobacter baumannii ATCC 19606 clinical isolates after 18 to 20 hrs in aerobic condition by CLSI-based broth microdilution assay. Type of data set: functional. As to conditions: ATCC 19606 = CIP 70.34 = JCM 6841.
Data set [22] has as its system Staphylococcus aureus. The data set can be described thus: Antibiofilm activity against methicillin-resistant Staphylococcus aureus NRS384-USA300 clinical isolates assessed as inhibition of biofilm formation at 0.5 times MIC incubated for 24 hrs by crystal violet staining based spectrophotometric method relative to control. Type of data set: functional.

As a reminder, the MIC is the lowest concentration that inhibits growth of the organism. Read a low MIC as inhibition by little substance. On to `C/C(=N\NC(=N)N)c1cnn(-c2ccc(C#CC(C)(C)C)cc2)c1C`, for which the minimal inhibitory concentration (MIC) against Escherichia coli [1] and in the data set on Staphylococcus aureus [2] was 8 µg/mL (≈ 23.8 µM) in each case.

With `CCCCCCC#Cc1ccc(-n2ncc(/C(C)=N/NC3=NCCN3)c2C)cc1`, the minimum inhibitory concentration (MIC) in the data set on Escherichia coli [1] is 8 µg/mL (≈ 20.5 µM); in the data set with Staphylococcus aureus [2], 4 µg/mL (≈ 10.2 µM).

Regarding `CCN(CC)CC#Cc1ccc(-n2ncc(/C(C)=N/NC(=N)N)c2C)cc1`, the MIC against Escherichia coli [1] and against Staphylococcus aureus [2] was 128 µg/mL (≈ 350 µM) in each case.

One may read the efflux ratio as a quotient of directional permeabilities that is used to spot active efflux. As a reminder, the Papp B→A is the apparent permeability from the basolateral to the apical side of a cell layer. For `CC(=O)C(=CN(C)C)C(C)=O`, the efflux ratio at 2 h in data set [3] is over 2. Moreover, the apparent permeability from basolateral to apical (Papp B→A) at 2 h in data set [4] was determined as 1.2 ×10⁻⁶ cm/s.

Regarding `C[C@@H](O)[C@H]1C(=O)N2C(C(=O)O)=C(S[C@@H]3CN[C@H](C(=O)N(C)C)C3)[C@H](C)[C@H]12` [MEROPENEM], the MIC was found to be 64 µg/mL (≈ 167 µM) against Klebsiella pneumoniae [5]; 32 µg/mL (≈ 83.4 µM) in the data set with Escherichia coli [6]; 32 µg/mL (≈ 83.4 µM) with Acinetobacter baumannii [7]; 32 µg/mL (≈ 83.4 µM) against Klebsiella pneumoniae [8]; 16 µg/mL (≈ 41.7 µM) in the data set with Pseudomonas aeruginosa [9]; 32 µg/mL (≈ 83.4 µM) with Escherichia coli [10].

For the molecule `CC(=O)NC[C@H]1CN(c2ccc(N3CCOCC3)c(F)c2)C(=O)O1` [LINEZOLID], the minimum inhibitory concentration (MIC) was 1 µg/mL (≈ 2.96 µM) in the data set on Staphylococcus aureus [11]; 1 µg/mL (≈ 2.96 µM) against Enterococcus faecium; 1 µg/mL (≈ 2.96 µM) with Staphylococcus aureus [2]; at most 0.5 µg/mL in data set [12]; 1 µg/mL (≈ 2.96 µM) with Staphylococcus aureus [13]; 1 µg/mL (≈ 2.96 µM) with Staphylococcus aureus [14]. Also, the MIC came to 32 µg/mL (≈ 94.9 µM) in the data set with Staphylococcus aureus [15], 1 µg/mL (≈ 2.96 µM) with Staphylococcus aureus [16], 1 µg/mL (≈ 2.96 µM) against Staphylococcus aureus [17] and 1 µg/mL (≈ 2.96 µM) in the data set on Listeria monocytogenes.

In the case of `CCCCC#Cc1ccc(-n2ncc(/C(C)=N/NC3=NCCN3)c2C)cc1`, the figures for the minimal inhibitory concentration (MIC) against Escherichia coli [1] and against Staphylococcus aureus [2] were 4 µg/mL (≈ 11 µM) and 2 µg/mL (≈ 5.52 µM), respectively.

Consider `C/C(=N\NC1=NCCN1)c1cnn(-c2ccc(C#CC3(O)CCCCC3)cc2)c1C`, for which the minimum inhibitory concentration (MIC) in the data set on Escherichia coli [1] was 32 µg/mL (≈ 79.1 µM); against Staphylococcus aureus [2], 64 µg/mL (≈ 158 µM).

`CCN(CC)CC#Cc1ccc(-n2ncc(/C(C)=N/NC3=NCCN3)c2C)cc1`: the MIC against Escherichia coli [1] and against Staphylococcus aureus [2] was over 128 µg/mL throughout.

On to `C/C(=N\NC(=N)N)c1sc(-c2ccc(C#CC3CCCC3)cc2)nc1C`, for which the result in the data set on Escherichia coli [18], with Klebsiella pneumoniae [19], with Escherichia coli [1], with Pseudomonas aeruginosa [20] and in the data set on Acinetobacter baumannii [21] was inactive.

Regarding `C/C(=N\NC(=N)N)c1cnn(-c2ccc(C#CC(C)(C)O)cc2)c1C`, the MIC against Escherichia coli [1] and in the data set on Staphylococcus aureus [2] was 128 µg/mL (≈ 378 µM) each time.

Take `C/C(=N\NC1=NCCN1)c1cnn(-c2ccc(C#CC(C)(C)C)cc2)c1C`: the MIC with Escherichia coli [1] and in the data set with Staphylococcus aureus [2] was 16 µg/mL (≈ 44.1 µM) in each case. Moreover, the “inhibition (INH)” value with Staphylococcus aureus [22] was 62%.

Consider `CN(C)c1cc(NC(=O)CNC(C)(C)C)c(O)c2c1C[C@H]1C[C@H]3[C@H](N(C)C)C(O)=C(C(N)=O)C(=O)[C@@]3(O)C(O)=C1C2=O` [TIGECYCLINE], for which the minimum inhibitory concentration (MIC) against Klebsiella pneumoniae [5] is 4 µg/mL (≈ 6.83 µM); against Escherichia coli [6], 0.25 µg/mL (≈ 0.427 µM); against Acinetobacter baumannii [7] it was 1 µg/mL (≈ 1.71 µM); against Klebsiella pneumoniae [8] it was 1 µg/mL (≈ 1.71 µM); with Pseudomonas aeruginosa [9] it was 8 µg/mL (≈ 13.7 µM); against Escherichia coli [10], 0.5 µg/mL (≈ 0.854 µM).
